# Data reported in article PMC6593178 (Bioorganic & Medicinal Chemistry Letters, 2019).
# “Also recorded” adds a separate entry of the source. Like-named read-outs stand apart in the source and are kept apart here.
# How the values were obtained:
# CMY-2 = biological target: CMY-2; set-up: method as in PMID 25782055; conditions: read-out: Vaborbactam Ki; CMY-2, nitrocefin assay; cited from earlier work
# KPC-2 carbapenemase = biological target: KPC-2 carbapenemase; set-up: method as in PMID 25782055; conditions: read-out: Vaborbactam Ki; KPC-2, nitrocefin assay; cited from earlier work
# CTX-M15 [1] = biological target: CTX-M15; set-up: method as in PMID 25782055; conditions: read-out: Vaborbactam Ki; CTX-M15, nitrocefin assay; cited from earlier work
# SHV-12 = conditions: read-out: Vaborbactam Ki; SHV-12, nitrocefin assay; cited from earlier work
# CphA [2] = biological target: T1, CphA (Aeromonas hydrophila, UniProt P26918); assay: β-lactamase inhibition, meropenem hydrolysis UV assay; format: biochemical; conditions: subclass B2
# T1 construct: made in house; host or cells: E. coli
# Procedure: (§1) Recombinant MBLs and SBLs were produced in E. coli and purified following reported procedures^1-6 and were all >95% pure (as judged by SDS-PAGE and MS analyses). Note the TEM enzyme used in this study is named TEM-116^7, in previous studies this has been assigned incorrectly as TEM-1^3, 5, 8-14. […] Activity was assayed by monitoring the release of a fluorophore following the enzymatic breakdown of the cephalosporin FC-5^15, with the exception of the class B2 MBLs, where the hydrolysis of meropenem was used as a readout^16. FC-5 assays were conducted in clear bottomed 384 black well microplates (Greiner) and the initial rate of reaction was assessed by monitoring the fluorescence intensity (λex = 380 nm and λem = 460 nm) using a PHERAstar FS (BMG LabTech) plate reader^15. For the B2 MBLs, assays were carried out in 96 well UV star microplates (Greiner) and UV absorbance at λ = 300 nm monitored. Initial rates of reaction were determined and dose-response analyses conducted in GraphPad Prism^15.
# NDM-1 = biological target: T2, NDM-1 (Klebsiella pneumoniae, UniProt C7C422); assay: β-lactamase inhibition, FC-5 fluorogenic cephalosporin assay; format: biochemical; conditions: NDM-1, subclass B1
# T2 construct: made in house; host or cells: E. coli
# Procedure: as §1
# L1 [3] = biological target: T3, L1 (Stenotrophomonas maltophilia, UniProt P52700); assay: as above; format: biochemical; conditions: L1, subclass B3
# T3 construct: made in house; host or cells: E. coli
# Procedure: as §1
# VIM-2 = biological target: T4, VIM-2 (Escherichia coli, UniProt Q5U7L7); assay: as above; format: biochemical; conditions: VIM-2, subclass B1
# T4 construct: made in house; host or cells: E. coli
# Procedure: as §1
# OXA-10 = biological target: T5, OXA-10 (Pseudomonas aeruginosa, UniProt P14489); assay: as above; format: biochemical; conditions: for IC50: OXA-10, class D
# T5 construct: made in house; host or cells: E. coli
# Procedure: as §1
# KPC-2 = biological target: T6, KPC-2 (Klebsiella pneumoniae, UniProt Q9F663); assay: as above; format: biochemical; conditions: KPC-2, class A
# T6 construct: made in house; host or cells: E. coli
# Procedure: as §1
# VIM-1 = biological target: T7, VIM-1 (Pseudomonas aeruginosa, UniProt A0A0F7KYQ8); assay: as above; format: biochemical; conditions: VIM-1, subclass B1
# T7 construct: made in house; host or cells: E. coli
# Procedure: as §1
# IMP-1 = biological target: T8, IMP-1 (Serratia marcescens, UniProt P52699); assay: as above; format: biochemical; conditions: IMP-1, subclass B1
# T8 construct: made in house; host or cells: E. coli
# Procedure: as §1
# AmpC [4] = biological target: T9, AmpC (Pseudomonas aeruginosa, UniProt P24735); assay: as above; format: biochemical; conditions: class C
# T9 construct: made in house; host or cells: E. coli
# Procedure: as §1
# OXA-48 = biological target: T10, OXA-48 (Klebsiella pneumoniae, UniProt Q6XEC0); assay: as above; format: biochemical; conditions: Vaborbactam IC50, OXA-48, class D, 100 mM NaHCO3
# T10 construct: made in house; host or cells: E. coli
# cephalosporinase P99 = biological target: cephalosporinase P99; set-up: method as in PMID 25782055; conditions: read-out: Vaborbactam Ki; P99, nitrocefin assay; cited from earlier work
# [5] = system: class B MBLs (IMP-1, VIM-1, VIM-2, NDM-1 and L1); set-up: method as in PMID 27401561; conditions: across the same range of inhibitor concentrations as vaborbactam; cited from earlier work
# CTX-M15 [6] = system: CTX-M15; set-up: method as in PMID 28115348; conditions: read-out: Cyclic Boronate (CB2) IC50; cited from earlier work
# CphA [7] = biological target: T1, CphA; conditions: cited from earlier work
# AmpC [8] = biological target: T9, AmpC; conditions: read-out: Cyclic Boronate (CB2) IC50; cited from earlier work
# L1 [9] = biological target: T3, L1; conditions: cited from earlier work
# T5 sequence (P14489 20-266, species assumed): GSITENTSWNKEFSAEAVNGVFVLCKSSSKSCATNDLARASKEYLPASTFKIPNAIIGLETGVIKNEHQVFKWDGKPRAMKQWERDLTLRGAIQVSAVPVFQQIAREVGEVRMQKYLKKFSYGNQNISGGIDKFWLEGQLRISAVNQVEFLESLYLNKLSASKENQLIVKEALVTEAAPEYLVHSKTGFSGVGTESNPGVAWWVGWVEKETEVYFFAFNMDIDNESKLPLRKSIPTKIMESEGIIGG
# T1 sequence (P26918 28-254): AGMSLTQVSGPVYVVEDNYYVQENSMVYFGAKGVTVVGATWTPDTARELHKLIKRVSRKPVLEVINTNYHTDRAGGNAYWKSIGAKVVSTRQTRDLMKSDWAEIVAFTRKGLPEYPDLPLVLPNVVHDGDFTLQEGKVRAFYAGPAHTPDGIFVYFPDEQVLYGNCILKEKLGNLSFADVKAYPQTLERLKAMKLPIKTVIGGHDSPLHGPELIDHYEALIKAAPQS
# T3 sequence (P52700 34-290): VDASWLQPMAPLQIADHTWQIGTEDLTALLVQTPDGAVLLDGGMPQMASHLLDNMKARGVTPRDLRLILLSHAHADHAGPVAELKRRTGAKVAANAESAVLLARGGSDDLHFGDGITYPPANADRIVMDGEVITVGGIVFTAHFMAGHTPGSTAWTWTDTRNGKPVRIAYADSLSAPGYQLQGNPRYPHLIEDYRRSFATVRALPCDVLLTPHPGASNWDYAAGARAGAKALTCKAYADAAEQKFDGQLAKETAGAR
# T9 sequence (P24735 27-397): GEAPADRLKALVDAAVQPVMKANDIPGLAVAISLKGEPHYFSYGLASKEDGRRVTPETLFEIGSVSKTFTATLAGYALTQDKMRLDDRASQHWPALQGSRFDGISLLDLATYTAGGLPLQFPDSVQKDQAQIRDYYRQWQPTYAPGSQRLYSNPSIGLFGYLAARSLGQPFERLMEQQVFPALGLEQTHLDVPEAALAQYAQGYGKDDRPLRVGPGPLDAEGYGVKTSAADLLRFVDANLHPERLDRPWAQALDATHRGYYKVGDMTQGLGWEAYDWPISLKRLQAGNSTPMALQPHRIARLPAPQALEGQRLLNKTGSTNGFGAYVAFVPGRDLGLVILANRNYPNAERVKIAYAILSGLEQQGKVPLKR
# T2 sequence (C7C422 29-270, looked up, species assumed): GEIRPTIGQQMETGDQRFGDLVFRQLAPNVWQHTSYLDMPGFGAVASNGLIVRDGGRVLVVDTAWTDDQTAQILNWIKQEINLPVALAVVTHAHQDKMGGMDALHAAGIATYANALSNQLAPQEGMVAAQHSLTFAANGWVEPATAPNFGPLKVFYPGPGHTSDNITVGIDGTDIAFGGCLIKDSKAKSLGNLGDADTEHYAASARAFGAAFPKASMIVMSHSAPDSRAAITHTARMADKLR
# T8 sequence (P52699 19-246, looked up, species assumed): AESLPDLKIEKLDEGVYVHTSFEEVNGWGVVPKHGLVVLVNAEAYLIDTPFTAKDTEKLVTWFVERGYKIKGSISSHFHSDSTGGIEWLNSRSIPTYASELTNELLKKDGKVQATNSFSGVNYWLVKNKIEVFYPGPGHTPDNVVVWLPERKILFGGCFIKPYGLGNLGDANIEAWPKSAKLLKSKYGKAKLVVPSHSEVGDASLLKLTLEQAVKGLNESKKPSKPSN
# T6 sequence (Q9F663 25-293, looked up, species assumed): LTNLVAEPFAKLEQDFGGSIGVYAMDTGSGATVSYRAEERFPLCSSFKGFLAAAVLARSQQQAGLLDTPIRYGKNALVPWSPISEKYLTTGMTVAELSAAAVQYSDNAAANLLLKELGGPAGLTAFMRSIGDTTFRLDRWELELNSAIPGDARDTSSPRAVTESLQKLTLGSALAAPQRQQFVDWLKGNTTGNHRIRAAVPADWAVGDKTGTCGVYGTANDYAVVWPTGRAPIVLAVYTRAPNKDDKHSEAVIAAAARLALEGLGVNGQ
# T10 sequence (Q6XEC0 23-265, looked up, species assumed): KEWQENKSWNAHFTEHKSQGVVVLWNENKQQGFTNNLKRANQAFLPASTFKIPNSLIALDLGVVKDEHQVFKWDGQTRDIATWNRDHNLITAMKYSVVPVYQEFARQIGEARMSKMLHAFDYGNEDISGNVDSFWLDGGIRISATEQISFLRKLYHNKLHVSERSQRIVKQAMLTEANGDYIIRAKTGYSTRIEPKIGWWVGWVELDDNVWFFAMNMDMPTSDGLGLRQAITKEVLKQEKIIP
structure (smiles),measurement,setting,value
"O=C(O)C[C@@H]1CC[C@H](NC(=O)Cc2cccs2)B(O)O1 [Vaborbactam, vaborbactam]",Ki,CMY-2,0.099 µM
same,Ki,KPC-2 carbapenemase,0.069 µM
same,Ki,CTX-M15 [1],0.044 µM
same,Ki,SHV-12,0.029 µM
same,IC50,CphA [2],631 µM
same,IC50,NDM-1,631 µM
same,IC50,L1 [3],336 µM
same,IC50,VIM-2,316 µM
same,IC50,OXA-10; without NaHCO3,> 400 µM
same,IC50,"OXA-10; read-out: Vaborbactam IC50, 100 mM NaHCO3",> 400 µM
same,inhibition at 400 µM,OXA-10; read-out: inhibition of OXA-10 at the highest tested concentration,< 50%
same,IC50,KPC-2,0.09 µM
same,IC50,VIM-1,398 µM
same,IC50,IMP-1,126 µM
same,IC50,AmpC [4],5 µM
same,IC50,OXA-48,32 µM
same,Ki,cephalosporinase P99,0.053 µM
NC(=O)[C@@H]1CC[C@@H]2CN1C(=O)N2OS(=O)(=O)O [avibactam],inhibition of MBLs,[5],does not show any inhibition
NCc1ccc(C(=O)N[C@H]2Cc3cccc(C(=O)O)c3OB2O)cc1 [CB2],IC50,CTX-M15 [6],0.013 µM
same,inhibitory activity against B2 CphA,CphA [7]; CphA (mono Zn(II)),do not exhibit inhibitory activity
same,IC50,"CphA [7]; read-out: Cyclic Boronate (CB2) IC50, CphA",> 100 µM
same,IC50,AmpC [8],0.12 µM
same,Cyclic Boronate (CB2) IC50,L1 [9],do not exhibit inhibitory activity; also recorded: Not inhibited[19]
